# Experimental data as given in patent publication US20030018991A1, “Transformation and regeneration of wheat using increased copper levels” (priority 2001, published 2003).
# Where two headings read alike, the source gives them in different places.
# Legend:
# wheat scutellar tissues = assay: Recovery of transgenic wheat lines and plant escapes after particle bombardment, with 100 μM copper in regeneration medium; type: cell-based
# [1] = system: wheat embryogenic calluses induced from scutellar tissues; assay: Shoot regeneration from embryogenic calluses on RZ regeneration medium supplemented with CuSO4; type: cell-based; conditions: for optimum range of copper concentration: number of plants regenerated per callus
# Method: The primary culture explants were immature embryos or scutella. Wheat caryopses containing early-medium milk-stage grains with translucent embryos were harvested and surface-sterilised in 70% ethanol for 5 min and 0.5% hypochlorite solution for 15 min. Under aseptic conditions, embryos of approximately 0.5-1.0 mm length were isolated and either cultured entirely or the embryo axes were removed to produce isolated scutella. Thirty embryos/scutella were placed in the center (18 mm target circle) of a 90 mm Petri dish containing callus induction medium. The callus induction medium for embryos/scutellar tissues, called MD0.5, consisted of solidified (0.5% […], Sigma A3301) modified MS medium supplemented with 9% sucrose, 10 mg l^-1 AgNO3 and 0.5 mg l^-1 2,4-D (Rasco-Gaunt et al., 2001 J. Exp. Bot. 52 (357): 865-874). Embryos/scutella were placed with the embryo-axis side in contact with the medium. Cultures were incubated at 25±1° C. in darkness for approximately 24 hr before bombardment. Embryogenic calluses were transferred, for regeneration, to RZ regeneration medium and cultured under 12 h light (250 μE s^-1 m^-2, from cool white fluorescent tubes) at 25+1° C. for three weeks. The RZ regeneration medium, contained L salts, vitamins and myo-inositol, 3% w/v maltose, 0.1 mg l^-1 2,4-D and 5 mg l^-1 zeatin (Rasco-Gaunt and Barcelo, 1999 Plant Cell Culture Protocols. Methods in Molecular Biology series. Hall, RD ed. 111: 71-81, Humana Press, Totowa NJ) and CuSO4 at concentrations ranging from 0 to 1000 μM. The supplementation of silver nitrate in the range of 1-20 mg l^-1 is optional. Selection agents such as 2-6 mg l^-1 Glufosinate ammonium (Greyhound, United Kingdom) and 10-500 ppm sulfonylurea herbicide e.g. Nicosulfuron (DuPont, France) and Rimsulfuron (DuPont, France) were incorporated in RZ regeneration medium. A second three-week culture passage on the same medium was performed as required, with or without a selection agent. Following culture on RZ regeneration medium, plantlets were cultured for one or two three-week passages on R0 medium (RZ without hormones, AgNO3 and CuSO4 supplementation), with or without the selection agent. To determine the effects of increased copper concentration on shoot regeneration, embryogenic calluses were subcultured onto RZ regeneration medium (see Example 1) supplemented with CuSO4 at concentrations ranging from 0 to 1000 μM. Prior to transfer onto RZ regeneration medium, calluses were induced from scutellar tissues. Procedures for the growth of donor plant materials, isolation of explants and culture initiation are described in Example 1. Following culture on CuSO4 medium, the calluses were transferred to R0 medium (see Example 1). After three weeks, regeneration frequencies of calluses, average number of plant per callus, as well as shoot quality were noted. Regeneration frequency is calculated as the number of shoot-producing calluses divided by the total number of scutella isolated. Percent (%) regeneration is […] multiplied by 100.
# [2] = system: callus cultures in hexaploid wheat; conditions: cited from earlier work
# [3] = system: cultures of the anther of tetraploid (pasta) wheat; conditions: cited from earlier work
# [4] = 100 μM copper, PPT selection, different genotypes (Example 4)
compound,measurement,setting,value
O=S(=O)([O-])[O-].[Cu+2] [CuSO4],transformation frequency,"wheat scutellar tissues; 100 μM CuSO4, Cadenza and NH535, PPT and sulfonylurea selection systems",improved
same,frequency of plant escapes,wheat scutellar tissues; [4],did not have an important effect
same,recovery of transformants / transformation efficiencies,wheat scutellar tissues; [4],improved
same,plant escape frequency,"wheat scutellar tissues; 100 μM copper, plasmid pHP8092, PPT selection, varieties Cadenza and NH535",slightly higher
same,plant escapes,"wheat scutellar tissues; 100 μM copper, variety Cadenza, PPT selection, constructs p15629 and pAHC20",clear reduction
same,escape frequency,"wheat scutellar tissues; 100 μM copper, variety NH535, sulfonylurea selection, construct pML146",higher
same,shoot quality,"[1]; copper levels up to 500 μM, Riband and Imp, versus control 0.1 μM copper",vigorous and prolific
same,optimum range of copper concentration,[1]; variety Eole,100 to 150 µM
same,optimum range of copper concentration,[1]; variety NH535,100 to 200 µM
same,regeneration frequencies,"[1]; wheat variety Eole, CuSO4 levels up to 300 μM",100%
same,Plant regeneration frequency,"[1]; wheat variety Imp, CuSO4 levels up to 300 μM",100%
same,regeneration frequencies,"[1]; wheat variety NH535, CuSO4 levels up to 300 μM",100%
same,Plant regeneration frequency,"[1]; wheat variety Riband, levels up to 500 μM CuSO4",100%
same,effect on regeneration frequency,[1]; while improving shoot quality,no negative effect
same,regeneration rates relative to original MS copper level (0.1 μM),"[2]; 10 μM CuSO4, Purnhauser 1991",eight times higher
same,optimum Cu level,"[2]; ""more detailed"" studies cited in Purnhauser 1991",2 µM
same,optimum Cu level,[2]; Purnhauser 1991 study,10 µM
same,maximum regeneration frequency achieved,"[2]; optimum 10 μM Cu, single breeding line, Purnhauser 1991",59%
same,production of embryoid from anthers versus control treatment,"[3]; 20 or 40 μM CuSO4, three of four genotypes",increased
same,embryoid production,"[3]; fourth genotype, all levels tested (10, 20 or 40 μM)",reduced
same,production of green plants versus control media,"[3]; over the four genotypes, copper-containing media",lower
